Assay [1] relates to human umbilical cord mesenchymal stem cells. The following applies: ethionamide 10 or 100 μM, 24 hours incubation; compared to control not treated. Here is the method: To this end, the human umbilical cord mesenchymal stem cells (5×10^4 cells) prepared by the method described in Example 1 were dispensed into a Transwell plate (Costar, USA) with an 8.0 μm pore size, and treated with ethionamide at 10 or 100 μM, followed by incubation for 24 hours. Subsequently, the cells were fixed with 4% paraformaldehyde and stained with hematoxylin, the inner side of the Transwell was wiped with a cotton tip, and then the number of cells present on the bottom surface of the Transwell was measured using a microscope.

A further assay has as its system CXCR4. The following applies: treated with ethionamide for 72 hours; compared with stem cells not treated (Control).
Assay [2] deals with human umbilical cord mesenchymal stem cells. The following applies: ethionamide 10 or 100 μM, 24 hours incubation; scratch observed after 14 hours; compared to control not treated. Here is the method: To this end, human umbilical cord mesenchymal stem cells (5×10^4 cells) prepared according to the method described in Example 1 were dispensed into a 6-well plate, and simultaneously treated with ethionamide at 10 or 100 μM, followed by incubation for 24 hours. Subsequently, to inhibit cell proliferation, the cells were treated with mitomycin C at 10 μg/mL to allow a reaction for 2 hours, a scratch was made on the plate using a tip, followed by exchanging the medium with a fresh medium.

Structures are written as SMILES.

Protocol for CXCR4: To this end, the human mesenchymal stem cells prepared according to the method described in Example 1 were treated with ethionamide for 72 hours, and then lysed with TRIzol (Ambion, USA). Subsequently, following the addition of chloroform (Sigma Aldrich, USA) and centrifugation, only a supernatant was transferred to a new tube, treated with isopropanol (Amresco, USA), and centrifuged to precipitate RNA. Afterward, the precipitated RNA was treated with 75% ethanol (Merck Millipore, USA) for washing, and the completely dried RNA was dissolved in DEPC water (Biosesang, Korea). 5 μg of RNA extracted from the human mesenchymal stem cells treated or not treated with ethionamide by the above-described method was used for cDNA synthesis, and here, for the cDNA synthesis, a cDNA synthesis kit (Invitrogen, USA) was used. Afterward, 10 pM of a primer (Bioneer, Korea) specific for CXCR4, which is a gene related to stem cell migration, and a SYBR green master mix (Applied Biosystems, USA) were added to the synthesized cDNA, and cDNA was amplified using a real time-PCR device (Applied Biosystems, USA), followed by assessment of the amplified result to measure an initial amount of cDNA.

Consider `CCc1cc(C(N)=S)ccn1` [ethionamide, 2-ethylpyridine-4-carbothioamide], for which, in assay [1], the “invasion ability of human mesenchymal stem cells (number of cells on bottom surface of Transwell)” value is “significantly increased”. For the same molecule, in the assay with CXCR4, the “expression level of the CXCR4 gene” value is “at least 4 fold”. Further, in assay [2], the “migration ability of human mesenchymal stem cells (number of migrating stem cells)” value is “significantly increased”.
